Experimental data taken from ChEMBL document CHEMBL1201862, “PubChem BioAssay data set” (2004).
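The compound was tested at five concentrations on cells cultured in 96-well plates, with a 48-hour exposure period. GI50 = concentration required for 50% inhibition of growth.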 Calls of active or inactive are those of the source. Rule as the data show it: active = GI50 up to about 1.1 µM and inactive = higher. *1 amine or outer side, *2 acyl side, *3 side chain or, on linkers, in order; H or OH if unused. Where a SMILES comes first, the peptide text is derived from it. Bridges are numbered along the chain shown (N, C = ends). Roman numbers before positions name the chains, in order. [ ]: non-standard residue; d: D form. Actinocin(9to1) = Cc1c2oc3c(C)ccc(C(=O)[*:1])c3nc-2c(C(=O)[*:2])c(N)c1=O; NMeV = CN[CH](C(=O)O)C(C)C; Sar = CNCC(=O)O

Legend:
Assay in all cases: NCI-60 cell line screen, 48 h
NCI-H226 = tested on: NCI-H226
T47D = tested on: T47D
HCC 2998 = tested on: HCC 2998
Malme-3M = tested on: Malme-3M
MDA-MB-231 = tested on: MDA-MB-231
EKVX = tested on: EKVX
MDA-N = tested on: MDA-N
SNB-75 = tested on: SNB-75
BT-549 = tested on: BT-549
NCI/ADR-RES = tested on: NCI/ADR-RES
PC-3 = tested on: PC-3
MCF7 = tested on: MCF7
HT-29 = tested on: HT-29
DU-145 = tested on: DU-145
IGROV-1 = tested on: IGROV-1
Hs-578T = tested on: Hs-578T
MDA-MB-435 = tested on: MDA-MB-435
OVCAR-3 = tested on: OVCAR-3
CAKI-1 = tested on: CAKI-1

Structure (SMILES) | GI50 (NCI-H226) | GI50 (T47D) | GI50 (HCC 2998) | GI50 (Malme-3M) | GI50 (MDA-MB-231) | GI50 (EKVX) | GI50 (MDA-N) | GI50 (SNB-75) | GI50 (BT-549) | GI50 (NCI/ADR-RES) | GI50 (PC-3) | GI50 (MCF7) | GI50 (HT-29) | GI50 (DU-145) | GI50 (IGROV-1) | GI50 (Hs-578T) | GI50 (MDA-MB-435) | GI50 (OVCAR-3) | GI50 (CAKI-1)
N#CCCN(CCN(CCC#N)C(=O)Nc1ccccc1)C(=O)Nc1ccccc1 | > 100 µM (inactive) | > 100 µM (inactive) | > 100 µM (inactive) | > 100 µM (inactive) | > 100 µM (inactive) | 90.8 µM (inactive) | > 100 µM (inactive) | 19.5 µM (inactive) | 31 µM (inactive) | 72.6 µM (inactive) | 69.3 µM (inactive) | > 100 µM (inactive) | > 100 µM (inactive) | 76.9 µM (inactive) | 68.9 µM (inactive) | 33.8 µM (inactive) | – | – | –
O=C1c2ccccc2C(=O)c2[nH]c(=O)c(/C=N/Nc3ccc([N+](=O)[O-])cc3)nc21 | 1.51 µM (inactive) | > 47.2 µM (inactive) | 1.61 µM (inactive) | 1.21 µM (inactive) | 11.3 µM (inactive) | 24.1 µM (inactive) | 1.75 µM (inactive) | – | 5.08 µM (inactive) | 19.1 µM (inactive) | 17.1 µM (inactive) | 9.38 µM (inactive) | 2.59 µM (inactive) | 1.81 µM (inactive) | 14.4 µM (inactive) | 3.22 µM (inactive) | 1.8 µM (inactive) | 2.92 µM (inactive) | 17.3 µM (inactive)
Cn1c(=O)c2[nH]c(/N=N/N3CCN(CCO)CC3)nc2n(C)c1=O | > 100 µM (inactive) | > 100 µM (inactive) | – | > 100 µM (inactive) | > 100 µM (inactive) | > 100 µM (inactive) | > 100 µM (inactive) | – | 18.8 µM (inactive) | 67 µM (inactive) | > 100 µM (inactive) | > 100 µM (inactive) | > 100 µM (inactive) | > 100 µM (inactive) | > 100 µM (inactive) | > 100 µM (inactive) | > 100 µM (inactive) | > 100 µM (inactive) | > 100 µM (inactive)
O=Cc1cc(O)ccc1Br | 28.8 µM (inactive) | 42.1 µM (inactive) | 11.8 µM (inactive) | 18.5 µM (inactive) | 36.1 µM (inactive) | 65.6 µM (inactive) | 3.1 µM (inactive) | 14.4 µM (inactive) | 11.6 µM (inactive) | 12.1 µM (inactive) | 13.2 µM (inactive) | 4.41 µM (inactive) | 18.2 µM (inactive) | 44.7 µM (inactive) | 28.1 µM (inactive) | 9.31 µM (inactive) | 2.5 µM (inactive) | 6.3 µM (inactive) | 20 µM (inactive)
Nn1c(S)nnc1COc1cccc(OCc2nnc(S)n2N)c1 | > 100 µM (inactive) | > 100 µM (inactive) | > 100 µM (inactive) | > 100 µM (inactive) | > 100 µM (inactive) | > 100 µM (inactive) | > 100 µM (inactive) | > 100 µM (inactive) | > 100 µM (inactive) | > 100 µM (inactive) | > 100 µM (inactive) | 75 µM (inactive) | 43.7 µM (inactive) | > 100 µM (inactive) | > 100 µM (inactive) | > 100 µM (inactive) | > 100 µM (inactive) | > 100 µM (inactive) | > 100 µM (inactive)
CC1(C)[C@H](C(=O)O)N2C(=O)[C@@H](NS(=O)(=O)c3ccc([N+](=O)[O-])cc3)[C@H]2S1(=O)=O | > 100 µM (inactive) | > 100 µM (inactive) | > 100 µM (inactive) | > 100 µM (inactive) | > 100 µM (inactive) | > 100 µM (inactive) | > 100 µM (inactive) | > 100 µM (inactive) | > 100 µM (inactive) | > 100 µM (inactive) | > 100 µM (inactive) | > 100 µM (inactive) | > 100 µM (inactive) | > 100 µM (inactive) | > 100 µM (inactive) | > 100 µM (inactive) | > 100 µM (inactive) | > 100 µM (inactive) | > 100 µM (inactive)
COc1ccc(CC2COc3cc(O)cc(O)c3C2=O)cc1O (configuration not stated) | – | 3.99 µM (inactive) | – | 4.21 µM (inactive) | 6.49 µM (inactive) | > 100 µM (inactive) | 1.47 µM (inactive) | 1.37 µM (inactive) | 82.2 µM (inactive) | 2.64 µM (inactive) | 7.08 µM (inactive) | 6.21 µM (inactive) | 13.6 µM (inactive) | 9.48 µM (inactive) | 4.23 µM (inactive) | 2.4 µM (inactive) | 1.32 µM (inactive) | 2.3 µM (inactive) | 4.88 µM (inactive)
COc1ccc2nc3cc(Cl)ccc3c(NCCCCCC(=O)NC(COc3ccc4ccc5cccnc5c4n3)COc3ccc4ccc5cccnc5c4n3)c2c1 | 20.8 µM (inactive) | 20.1 µM (inactive) | 14.9 µM (inactive) | 45.9 µM (inactive) | 19.4 µM (inactive) | 24.8 µM (inactive) | 23 µM (inactive) | 21 µM (inactive) | 1.67 µM (inactive) | 26.9 µM (inactive) | 15.2 µM (inactive) | 2.23 µM (inactive) | 27.9 µM (inactive) | 11.5 µM (inactive) | 16.3 µM (inactive) | 29 µM (inactive) | 38.6 µM (inactive) | 28.5 µM (inactive) | 25.3 µM (inactive)
CC/N=C(\N)CSS(=O)(=O)O | > 100 µM (inactive) | > 100 µM (inactive) | – | > 100 µM (inactive) | > 100 µM (inactive) | > 100 µM (inactive) | > 100 µM (inactive) | > 100 µM (inactive) | > 100 µM (inactive) | > 100 µM (inactive) | > 100 µM (inactive) | > 100 µM (inactive) | > 100 µM (inactive) | > 100 µM (inactive) | > 100 µM (inactive) | > 100 µM (inactive) | > 100 µM (inactive) | > 100 µM (inactive) | > 100 µM (inactive)
CC(C)N(C(=O)C1(O)c2ccccc2C=Cc2ccccc21)C(C)C | 19.3 µM (inactive) | 16.6 µM (inactive) | – | 17.6 µM (inactive) | 15.7 µM (inactive) | 16.6 µM (inactive) | 19.3 µM (inactive) | – | 18.8 µM (inactive) | 18.2 µM (inactive) | 15.5 µM (inactive) | 17.3 µM (inactive) | 15.3 µM (inactive) | 17.9 µM (inactive) | 14.8 µM (inactive) | 45.9 µM (inactive) | 30.1 µM (inactive) | 16.9 µM (inactive) | 24.7 µM (inactive)
COc1ccc2c(Cc3c4ccccc4cc4ccccc34)cncc2c1O | 3.27 µM (inactive) | 17.2 µM (inactive) | – | 5.86 µM (inactive) | 2.51 µM (inactive) | 8.22 µM (inactive) | 0.404 µM (active) | 3.9 µM (inactive) | 5.69 µM (inactive) | 0.67 µM (active) | 5.14 µM (inactive) | 0.638 µM (active) | 14.2 µM (inactive) | 2.77 µM (inactive) | 2.92 µM (inactive) | 1.58 µM (inactive) | 0.239 µM (active) | 1.98 µM (inactive) | 4.15 µM (inactive)
N=C(N)NCC(N)C(=O)O (configuration not stated) | > 100 µM (inactive) | > 100 µM (inactive) | – | > 100 µM (inactive) | > 100 µM (inactive) | > 100 µM (inactive) | > 100 µM (inactive) | > 100 µM (inactive) | > 100 µM (inactive) | > 100 µM (inactive) | > 100 µM (inactive) | > 100 µM (inactive) | > 100 µM (inactive) | > 100 µM (inactive) | > 100 µM (inactive) | > 100 µM (inactive) | > 100 µM (inactive) | > 100 µM (inactive) | > 100 µM (inactive)
CC1OC1C(=O)P(=O)(O)O (configuration not stated) | > 100 µM (inactive) | > 100 µM (inactive) | > 100 µM (inactive) | – | > 100 µM (inactive) | > 100 µM (inactive) | > 100 µM (inactive) | 57.9 µM (inactive) | > 100 µM (inactive) | > 100 µM (inactive) | > 100 µM (inactive) | > 100 µM (inactive) | – | > 100 µM (inactive) | > 100 µM (inactive) | > 100 µM (inactive) | > 100 µM (inactive) | > 100 µM (inactive) | > 100 µM (inactive)
Cc1ccc(C2(O)c3ccccc3C(=O)N(C)C2(O)c2ccc(C)cc2)cc1 (configuration not stated) | – | > 100 µM (inactive) | 79.3 µM (inactive) | > 100 µM (inactive) | 28.2 µM (inactive) | 32.8 µM (inactive) | > 100 µM (inactive) | – | 91.8 µM (inactive) | 39.4 µM (inactive) | > 100 µM (inactive) | 38.9 µM (inactive) | 46.8 µM (inactive) | > 100 µM (inactive) | > 100 µM (inactive) | 22.6 µM (inactive) | > 100 µM (inactive) | > 100 µM (inactive) | 68.1 µM (inactive)
Cc1c2oc3c(C)ccc(C(=O)NC4C(=O)NC(C(C)O)C(=O)N5CCCC5C(=O)N(C)CC(=O)N(C)C(C(C)C)C(=O)OC4C)c3nc-2c(C(=O)NC2C(=O)NC(C(C)O)C(=O)N3CCCC3C(=O)N(C)CC(=O)N(C)C(C(C)C)C(=O)OC2C)c(N)c1=O (configuration not stated) (I: TTP[Sar][NMeV] / II: TTP[Sar][NMeV]; ester I:1-I:C, II:1-II:C; linker I:N-II:N via Actinocin(9to1); configuration not given here) | 0.0344 µM (active) | 0.184 µM (active) | 1.54 µM (inactive) | 0.125 µM (active) | 3.76 µM (inactive) | – | 1.08 µM (active) | 0.198 µM (active) | 0.0155 µM (active) | > 100 µM (inactive) | 1.06 µM (active) | 0.0507 µM (active) | 0.34 µM (active) | 1.32 µM (inactive) | 0.135 µM (active) | 1.41 µM (inactive) | 0.413 µM (active) | 0.28 µM (active) | 4.07 µM (inactive)
